Results as given in PMC5458211, “Mitochondrial VDAC1-based peptides: Attacking oncogenic properties in glioblastoma” (Oncotarget, 2017).
Non-standard residues stand in square brackets, D forms with d. Residues, ends and D or L forms follow the SMILES beside them.

System: Ki-67
Assay: Ki-67 immunohistochemistry of xenograft tumors
Format: in vivo, human U-87MG in nude mice
Conditions: s.c. U-87MG tumors, 20 μM intra-tumoral, n=5
Procedure: Figure 3 VDAC1-based peptides inhibit tumor growth, cell proliferation, and invasion in a glioblastoma xenograft mice model A. Graphical representation of the xenograft experiment protocol used. U-87MG cells (3×10^6/mouse) were inoculated into male nude mice as described in Materials and Methods available online in Supplemental information. B, C. […] The calculated average tumor volumes are presented as means ± SE (n=5) (* p≤0.05, ** p≤0.01). C. The volume of peptide-treated tumors is presented as % of control for each indicated time. Results = mean ± SE (n=5) (* p≤0.05, ** […]). […] E. Quantitative analysis of Ki-67 positive cells. Results = mean ± SE (n=5) (*** p<0.001). […]
100% DMSO and then diluted 20-fold with sterile DDW into three groups (6 animals/group) and treated every to reach a concentration of 25 mg/ml in a final DMSO third day with DMSO (1.44%), Retro-Tf-D-LP4 (10 concentration of 5%. PLGA (50 mg) was dissolved in mg/kg) or Retro-Tf-D-LP4 (10 mg/kg) encapsulated by acetone (1 ml). […] Tumor volume was analyzed using VivoQuant 2.10 10 ml of aqueous solution containing 1% PVA (w/v). […]
(Calbiochem, UK). […] Band intensities were analyzed xenografts were injected 20 µl per tumor (2 points) every by densitometry using Multi Gauge software (Fujifilm) […]

SMILES | decrease in Ki-67-positive cell numbers
CC[C@@H](C)[C@@H](NC(=O)[C@@H](CCCCN)NC(=O)[C@H](NC(=O)[C@@H](CCC(N)=O)NC(=O)[C@@H](CCCNC(=N)N)NC(=O)[C@@H](CC(C)C)NC(=O)CNC(=O)[C@@H](Cc1ccccc1)NC(=O)CNC(=O)[C@@H](Cc1ccc(O)cc1)NC(=O)CNC(=O)[C@@H](CCCCN)NC(=O)[C@H](NC(=O)[C@@H](Cc1ccccc1)NC(=O)[C@H](NC(=O)[C@@H](CC(=O)O)NC(=O)[C@H](N)CCCNC(=N)N)C(C)C)[C@H](C)O)[C@H](C)CC)C(=O)N[C@H](Cc1c[nH]c2ccccc12)C(=O)N[C@H](Cc1ccccc1)C(=O)N[C@H](CCC(N)=O)C(=O)N[C@H](CC(N)=O)C(=O)N[C@H](CCCNC(=N)N)C(=O)N[C@H](CCCNC(=N)N)C(=O)N[C@H](CCSC)C(=O)N[C@H](CCCCN)C(=O)N[C@H](Cc1c[nH]c2ccccc12)C(=O)N[C@H](CCCCN)C(=O)N[C@H](CCCCN)C(=O)O [D-ΔN-Ter-Antp] (H-[dR][dD][dV][dF][dT][dK]G[dY]G[dF]G[dL][dR][dQ][dI][dK][dI][dW][dF][dQ][dN][dR][dR][dM][dK][dW][dK][dK]-OH; N-terminus and C-terminus assumed) | about 45%
CC[C@H](C)[C@H](NC(=O)[C@H](C)NC(=O)[C@@H](N)Cc1c[nH]cn1)C(=O)N[C@@H](Cc1ccc(O)cc1)C(=O)N1CCC[C@H]1C(=O)N[C@@H](CCCNC(=N)N)C(=O)N[C@@H](Cc1c[nH]cn1)C(=O)N[C@@H](CO)C(=O)N[C@@H](Cc1c[nH]c2ccccc12)C(=O)N[C@H](C(=O)N[C@@H](Cc1c[nH]c2ccccc12)C(=O)N[C@@H](CCC(=O)O)C(=O)N[C@H](CCCCN)C(=O)N[C@H](CCCCN)C(=O)N[C@H](CC(C)C)C(=O)N[C@H](CCC(=O)O)C(=O)N[C@@H](C(=O)N[C@H](C)C(=O)N[C@@H](C(=O)N[C@H](CC(N)=O)C(=O)N[C@H](CC(C)C)C(=O)N[C@H](C)C(=O)N[C@H](Cc1c[nH]c2ccccc12)C(=O)N[C@@H](C(=O)N[C@H](C)C(=O)NCC(=O)N[C@H](CC(N)=O)C(=O)N[C@H](CO)C(=O)N[C@H](CC(N)=O)C(=O)N[C@@H](CCCCN)C(=O)N[C@@H](Cc1c[nH]c2ccccc12)C(=O)N[C@H](C(=O)N[C@@H](Cc1c[nH]c2ccccc12)C(=O)N[C@@H](CCCCN)C(=O)O)[C@@H](C)O)[C@H](C)O)C(C)C)[C@H](C)O)[C@@H](C)O [Tf-D-LP4] | about 45%
